Measured values as given in US9273011B2, “Substituted pyridazines for the treatment of pain” (INHIBITAXIN LIMITED, priority 2011, dated 2016).

Target: human Autotaxin enzyme (Homo sapiens (Human), UniProt Q13822)
Assay: Autotaxin FS-3 assay
Type: biochemical
Details: Autotaxin FS3 assay; human Autotaxin enzyme 2 nM; inhibition of FS-3 fluorescence; range and n in brackets
Text: Autotaxin (ATX) converts Lysophosphatidyl choline (LPC) to Lysophosphatidic acid (LPA) via its Lysophosphodiesterase (lysoPLD) activity. FS-3 is an LPC analogue that is conjugated with both a fluorophore and a quencher. In its native state the quencher interferes with the fluorophore's fluorescence. Once autotaxin cleaves FS-3, the fluorophore becomes liberated from the quencher, resulting in increased fluorescence. Thus increase in fluorescence is a measure of ATX activity. Any compound that inhibits the activity of Autotaxin will show less fluorescence read in presence of FS-3, which could be measured by fluorimetric analysis. See U.S. Pat. No. 7,989,663.
Autotaxin Inhibitor Screening Kits are available from Echelon Biosciences, Logan, Utah, USA [http://echelon-inc.com/, accessed 6 Oct. 2011]. Using the methods of Gierse et al [“A novel autotaxin inhibitor reduces lysophosphatidic acid levels in plasma and the site of inflammation”, Journal of Pharmacology and Experimental Therapeutics, vol 334(1), 310-317 (2010), see in particular page 312 lines 4-14], the potency of the compounds of the invention as inhibitors of human autotaxin enzyme may be measured (as IC50 values).
The FS-3 assay to identify ATX inhibitors was preformed as follows: 3 μl of standard inhibitor (referred to as PF-8380 in Gierse et al above) and test compounds were added to an assay plate. To each assay well, containing test compounds or standard, 24 μl of human Autotaxin enzyme (2 nM) was added. The assay plate was then centrifuged at 1000 rpm for 1 minute and allowed to incubate at 37° C. for 30 minutes. Following the incubation period each plate was read in a fluorescence plate reader (Spectra Max M5: excitation: 494 nm and emission: 520 nm) and IC50 values were derived from inhibition of FS-3 fluorescence (as described above).

| SMILES | IC50 [nM] |
| --- | --- |
| Cc1ccc(F)c(CNc2ccc(C(=O)Nc3onc(C)c3C)nn2)c1F [Example 9, 6-[(2,6-difluoro-3-methylbenzyl)amino]-N-(3,4-dimethylisoxazol-5-yl)pyridazine-3-carboxamide] | 103 |
| Cc1onc(-c2ccccc2)c1CNc1ccc(C(=O)NCc2cc(F)cc(F)c2)nn1 [Example 14, N-(3,5-difluorobenzyl)-6-{[(5-methyl-3-phenylisoxazol-4-yl)methyl]amino}pyridazine-3-carboxamide] | 646 |
| Cc1noc(NC(=O)c2ccc(NC3CCN(Cc4ccccc4)C3)nn2)c1C (centres unmarked) [Example 12, 6-[(1-benzylpyrrolidin-3-yl)amino]-N-(3,4-dimethyl-isoxazol-5-yl)pyridazine-3-carboxamide] | 357 |
| O=C(NCCN1CCNC1=O)c1ccc(NC2Cc3ccccc3C2)nn1 [Example 6, 6-(2,3-dihydro-1H-inden-2-ylamino)-N-[2-(2-oxoimidazolidin-1-yl)ethyl]pyridazine-3-carboxamide] | 73.8 |
| Cc1noc(NC(=O)c2ccc(NC(C)c3ccc(Cl)cc3)nn2)c1C (centres unmarked) [Example 8, 6-{[1-(4-chlorophenyl)ethyl]amino}-N-(3,4-dimethyl-isoxazol-5-yl)pyridazine-3-carboxamide] | 100 |
| Cc1noc(NC(=O)c2ccc(NCc3cccc4ccccc34)nn2)c1C [Example 10, N-(3,4-dimethylisoxazol-5-yl)-6-[(1-naphthylmethyl)-amino]pyridazine-3-carboxamide] | 114 |
| CCN(Cc1ccncc1)c1ccc(C(=O)Nc2cc(-c3ccccc3)nn2C)nn1 [Example 4, 6-[ethyl(pyridin-4-ylmethyl)amino]-N-(1-methyl-3-phenyl-1H-pyrazol-5-yl)pyrid azine-3-carboxamide] | 65.2 |
| COc1ccc(C(CCO)Nc2ccc(C(=O)NCc3cc(F)ccc3F)nn2)cc1 (centres unmarked) [Example 1, N-(2,5-difluorobenzyl)-6-{[3-hydroxy-1-(4-methoxy-phenyl)propyl]amino}pyridazine-3-carboxamide] | 14 |
| COc1ccc(C(CCO)Nc2ccc(C(=O)NCc3cc(F)cc(F)c3)nn2)cc1 (centres unmarked) [Example 2, N-(3,5-difluorobenzyl)-6-{[3-hydroxy-1-(4-methoxy-phenyl)propyl]amino}pyridazine-3-carboxamide] | 24.9 |
| COc1ccc(C(CCO)Nc2ccc(C(=O)Nc3onc(C)c3C)nn2)cc1 (centres unmarked) [Example 5, N-(3,4-dimethylisoxazol-5-yl)-6-{[3-hydroxy-1-(4-methoxyphenyl)propyl]amino}pyridazine-3-carboxamide] | 69.5 |
| Cc1noc(NC(=O)c2ccc(NCc3cccc(Cl)c3Cl)nn2)c1C [Example 11, 6-[(2,3-dichlorobenzyl)amino]-N-(3,4-dimethyl-isoxazol-5-yl)pyridazine-3-carboxamide] | 248 |
| O=C(NCCCn1ccnc1)c1ccc(NCc2cc(Cl)cc(Cl)c2)nn1 [Example 7, 6-[(3,5-dichlorobenzyl)amino]-N-[3-(1H-imidazol-1-yl)propyl]pyridazine-3-carboxamide] | 89.2 |
| Cc1cc(NC(=O)c2ccc(NC(CO)Cc3ccc(Cl)cc3)nn2)n(C)n1 (centres unmarked) [Example 13, 6-{[1-(4-chlorobenzyl)-2-hydroxyethyl]amino}-N-(1,3-dimethyl-1H-pyrazol-5-yl)pyridazine-3-carboxamide] | 507 |
| Cc1noc(NC(=O)c2ccc(NC(CO)Cc3ccc(Cl)cc3)nn2)c1C (centres unmarked) [Example 3, 6-{[1-(4-chlorobenzyl)-2-hydroxyethyl]amino}-N-(3,4-dimethylisoxazol-5-yl)pyridazine-3-carboxamide] | 37.6 |
